pEC50: −log10 of the molar value.
What was measured:
[1] = target: Mu-type opioid receptor (Mus musculus) (UniProt P42866); assay: Activation of mouse MOR assessed as inhibition of forskolin-stimulated cAMP accumulation after 30 mins by cell based TR-FRET assay relative to DAMGO; format: functional
[2] = target: T1, Delta-type opioid receptor (Homo sapiens, UniProt P41143); assay: Activation of human DOR assessed as inhibition of forskolin-stimulated cAMP accumulation after 30 mins by cell based TR-FRET assay relative to DPDPE; format: functional
Mu-type opioid receptor [3] = target: Mu-type opioid receptor (Mus musculus, UniProt P42866); assay: Agonist activity at mouse MOR assessed as inhibition of forskolin-stimulated cAMP accumulation after 30 mins by cell based TR-FRET assay; format: functional
[4] = target: Kappa-type opioid receptor (Mus musculus, UniProt P33534); assay: Agonist activity at mouse KOR assessed as inhibition of forskolin-stimulated cAMP accumulation after 30 mins by cell based TR-FRET assay; format: functional
Homo sapiens [5] = organism: Homo sapiens; assay: Selectivity ratio of EC50 for human KOR to EC50 for human DOR
Homo sapiens [6] = organism: Homo sapiens; assay: Selectivity ratio of EC50 for human KOR to EC50 for human MOR
[7] = target: Kappa-type opioid receptor (Homo sapiens, UniProt P41145); format: functional, cell-based
Description: Agonist activity at human KOR assessed as inhibition of forskolin-stimulated cAMP accumulation after 30 mins by cell based TR-FRET assay

Mu-type opioid receptor [8] = target: T2, Mu-type opioid receptor (Homo sapiens, UniProt P35372); assay: Agonist activity at human MOR assessed as inhibition of forskolin-stimulated cAMP accumulation after 30 mins by cell based TR-FRET assay; format: functional
[9] = target: T1, Delta-type opioid receptor; assay: Agonist activity at human DOR assessed as inhibition of forskolin-stimulated cAMP accumulation after 30 mins by cell based TR-FRET assay; format: functional
Mu-type opioid receptor [10] = target: T2, Mu-type opioid receptor; assay: Ratio of morphine EC50 to compound EC50 for human MOR

Chain of Kappa-type opioid receptor (Mus musculus, UniProt P33534) (P33534 whole entry): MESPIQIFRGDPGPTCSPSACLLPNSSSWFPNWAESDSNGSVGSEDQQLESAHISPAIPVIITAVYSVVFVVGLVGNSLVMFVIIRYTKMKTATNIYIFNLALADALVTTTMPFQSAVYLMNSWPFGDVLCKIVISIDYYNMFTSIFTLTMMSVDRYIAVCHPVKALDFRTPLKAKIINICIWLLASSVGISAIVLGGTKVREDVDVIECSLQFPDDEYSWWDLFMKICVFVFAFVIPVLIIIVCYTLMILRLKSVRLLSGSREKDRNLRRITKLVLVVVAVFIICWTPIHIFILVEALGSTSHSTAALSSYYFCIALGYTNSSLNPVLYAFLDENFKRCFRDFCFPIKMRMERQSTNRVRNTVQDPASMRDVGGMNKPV
T1 sequence (P41143 whole entry): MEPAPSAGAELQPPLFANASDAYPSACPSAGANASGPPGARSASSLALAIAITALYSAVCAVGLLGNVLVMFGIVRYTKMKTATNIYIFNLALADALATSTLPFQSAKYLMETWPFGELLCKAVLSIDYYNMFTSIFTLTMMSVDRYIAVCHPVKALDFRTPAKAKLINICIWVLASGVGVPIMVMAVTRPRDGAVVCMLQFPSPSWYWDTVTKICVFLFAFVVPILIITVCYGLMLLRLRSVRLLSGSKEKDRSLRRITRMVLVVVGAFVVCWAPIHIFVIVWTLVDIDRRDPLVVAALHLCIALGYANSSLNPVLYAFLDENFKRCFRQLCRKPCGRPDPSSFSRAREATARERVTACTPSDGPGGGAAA
T2 sequence (P35372 whole entry): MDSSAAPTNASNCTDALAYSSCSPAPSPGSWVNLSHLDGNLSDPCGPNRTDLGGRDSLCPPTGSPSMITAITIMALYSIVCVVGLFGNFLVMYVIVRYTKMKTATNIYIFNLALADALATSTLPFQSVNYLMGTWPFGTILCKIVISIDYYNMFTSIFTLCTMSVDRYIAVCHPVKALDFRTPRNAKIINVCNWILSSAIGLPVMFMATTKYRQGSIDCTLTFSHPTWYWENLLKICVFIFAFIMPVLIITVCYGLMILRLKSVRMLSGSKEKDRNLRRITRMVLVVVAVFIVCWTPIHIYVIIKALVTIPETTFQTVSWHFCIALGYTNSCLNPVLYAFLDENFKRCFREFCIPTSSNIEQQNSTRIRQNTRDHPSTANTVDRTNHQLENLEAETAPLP
Chain of Kappa-type opioid receptor (Homo sapiens, UniProt P41145) (P41145 whole entry): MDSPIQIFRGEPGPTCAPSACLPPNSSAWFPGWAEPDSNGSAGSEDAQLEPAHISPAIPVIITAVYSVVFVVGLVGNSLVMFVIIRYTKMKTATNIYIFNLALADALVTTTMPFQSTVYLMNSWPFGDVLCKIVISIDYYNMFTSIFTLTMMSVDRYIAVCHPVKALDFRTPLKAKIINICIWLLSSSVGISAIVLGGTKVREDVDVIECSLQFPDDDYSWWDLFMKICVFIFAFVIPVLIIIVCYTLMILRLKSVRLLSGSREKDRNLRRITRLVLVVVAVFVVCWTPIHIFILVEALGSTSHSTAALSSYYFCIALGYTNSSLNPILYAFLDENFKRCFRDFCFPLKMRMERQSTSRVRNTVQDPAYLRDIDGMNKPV
Chain of Mu-type opioid receptor (Mus musculus) (P42866 whole entry): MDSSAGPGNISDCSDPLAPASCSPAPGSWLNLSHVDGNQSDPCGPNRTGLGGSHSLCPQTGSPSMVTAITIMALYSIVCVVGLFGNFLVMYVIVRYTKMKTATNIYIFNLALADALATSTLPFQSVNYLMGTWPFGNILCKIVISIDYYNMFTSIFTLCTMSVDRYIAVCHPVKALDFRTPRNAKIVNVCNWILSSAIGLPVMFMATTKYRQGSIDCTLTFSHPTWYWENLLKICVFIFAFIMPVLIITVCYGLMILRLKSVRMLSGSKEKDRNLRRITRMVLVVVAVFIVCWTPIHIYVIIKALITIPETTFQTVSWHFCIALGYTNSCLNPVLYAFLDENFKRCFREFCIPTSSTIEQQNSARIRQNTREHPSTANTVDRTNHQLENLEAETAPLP
Chain of Mu-type opioid receptor (Mus musculus, UniProt P42866) (P42866 whole entry): as above

COc1cc(C)c2c3c1O[C@H]1[C@H](F)[C@H](C)C[C@H]4[C@@H](C2)N(C)CC[C@@]341
inhibition [1]: 78% | inhibition [2]: 86% | pEC50 (Mu-type opioid receptor [3]): 6.10 | pEC50 [4]: 5.00 | Ratio EC50 (Homo sapiens [5]): 1 | Ratio EC50 (Homo sapiens [6]): 1 | pEC50 [7]: 5.30 | pEC50 (Mu-type opioid receptor [8]): 5.49 | pEC50 [9]: 5.49

COc1cc(C)c2c3c1O[C@H]1[C@@H](O)[C@H](C)C[C@H]4[C@@H](C2)N(C)CC[C@@]341
inhibition [1]: 77% | inhibition [2]: 73% | pEC50 (Mu-type opioid receptor [3]): 5.70 | pEC50 [4]: 4.30 | Ratio EC50 (Homo sapiens [5]): 1 | Ratio EC50 (Homo sapiens [6]): 3 | pEC50 (Mu-type opioid receptor [8]): 5.30 | pEC50 [9]: 4.80

COc1ccc2c3c1O[C@H]1[C@@H](O)[C@H](O)C[C@H]4[C@@H](C2)N(C)CC[C@@]341
inhibition [1]: 96% | inhibition [2]: 117% | pEC50 (Mu-type opioid receptor [3]): 5.20 | pEC50 [4]: 3.80 | Ratio EC50 (Homo sapiens [5]): 1 | Ratio EC50 (Homo sapiens [6]): 8 | pEC50 [7]: 3.90 | pEC50 (Mu-type opioid receptor [8]): 4.80 | pEC50 [9]: 4.00

COc1ccc2c3c1O[C@H]1[C@@H](O)[C@H](C)C[C@H]4[C@@H](C2)N(C)CC[C@@]341
inhibition [1]: 97% | inhibition [2]: 97% | pEC50 (Mu-type opioid receptor [3]): 6.22 | pEC50 [4]: 4.49 | Ratio EC50 (Homo sapiens [5]): 8 | Ratio EC50 (Homo sapiens [6]): 13 | pEC50 [7]: 4.60 | pEC50 (Mu-type opioid receptor [8]): 5.70 | pEC50 [9]: 5.49

COc1ccc2c3c1O[C@H]1[C@@H](O)[C@H](OC)C[C@H]4[C@@H](C2)N(C)CC[C@@]341
inhibition [1]: 86% | inhibition [2]: 84% | pEC50 (Mu-type opioid receptor [3]): 5.40 | Ratio EC50 (Homo sapiens [5]): 4 | Ratio EC50 (Homo sapiens [6]): 3 | pEC50 [7]: 4.30 | pEC50 (Mu-type opioid receptor [8]): 4.80 | pEC50 [9]: 4.89

COc1ccc2c3c1O[C@H]1[C@@H](OC)[C@H](C)C[C@H]4[C@@H](C2)N(C)CC[C@@]341
inhibition [1]: 92% | inhibition [2]: 94% | pEC50 (Mu-type opioid receptor [3]): 6.10 | pEC50 [4]: 4.30 | Ratio EC50 (Homo sapiens [5]): 13 | Ratio EC50 (Homo sapiens [6]): 10 | pEC50 [7]: 4.49 | pEC50 (Mu-type opioid receptor [8]): 5.49 | pEC50 [9]: 5.60

COc1ccc2c3c1O[C@H]1[C@@H](O)[C@H](F)C[C@H]4[C@@H](C2)N(C)CC[C@@]341
inhibition [1]: 79% | inhibition [2]: 90% | pEC50 (Mu-type opioid receptor [3]): 5.10 | Ratio EC50 (Homo sapiens [5]): 1 | Ratio EC50 (Homo sapiens [6]): 2 | pEC50 (Mu-type opioid receptor [8]): 4.40 | pEC50 [9]: 4.10

C[C@@H]1C[C@H]2[C@H]3Cc4ccc(O)c5c4[C@@]2(CCN3C)[C@@H](O5)[C@H]1O
inhibition [1]: 99% | inhibition [2]: 107% | Ratio EC50 (Mu-type opioid receptor [10]): 2 | pEC50 (Mu-type opioid receptor [3]): 8.00 | pEC50 [4]: 5.80 | Ratio EC50 (Homo sapiens [5]): 20 | Ratio EC50 (Homo sapiens [6]): 80 | pEC50 [7]: 5.80 | pEC50 (Mu-type opioid receptor [8]): 7.70 | pEC50 [9]: 7.10

CN1CC[C@]23c4c5ccc(O)c4O[C@H]2[C@@H](O)C=C[C@H]3[C@H]1C5
inhibition [1]: 97% | inhibition [2]: 69%

COc1ccc2c3c1O[C@H]1C(=O)CC[C@@]4(O)[C@@H](C2)N(C)CC[C@]314 [OXYCODONE]
inhibition [1]: 97% | inhibition [2]: 93% | pEC50 (Mu-type opioid receptor [3]): 6.80 | pEC50 [4]: 4.80

C[C@@H](NC(=O)[C@@H](N)Cc1ccc(O)cc1)C(=O)NCC(=O)N(C)[C@@H](Cc1ccccc1)C(=O)NCCO [DAMGO]
inhibition [2]: 99%
